{
  "source": "patent US9957288B2",
  "about": "“Pyrabactin analogues to modulate plant development” (Universiteit Gent, priority 2014, dated 2018)",
  "key": {"[1]": {"tested_on": "Arabidopsis thaliana seedlings", "conditions": "in vivo"}, "[2]": {"tested_on": "Arabidopsis thaliana seeds", "assay": "Arabidopsis thaliana seed germination assay", "format": "in vivo", "conditions": "10 μM, compared with control not-treated seeds"}, "[3]": {"tested_on": "Arabidopsis thaliana Columbia (Col0) seedlings", "assay": "Primary root elongation of etiolated seedlings on compound medium", "format": "in vivo", "conditions": "10 μM"}, "[4]": {"tested_on": "Arabidopsis thaliana Columbia (Col0) seedlings", "assay": "Lateral root initiation (lateral roots + lateral root primordia, number and density)", "format": "in vivo", "conditions": "10 μM"}, "tobacco epidermal strips": {"tested_on": "tobacco epidermal strips", "assay": "Stomatal closure assay on epidermal strips", "format": "cell-based, Nicotiana tabacum", "conditions": "10 μM"}, "[5]": {"tested_on": "Nicotiana benthamiana leaves", "assay": "Leaf dehydration assay (weight loss of pre-treated detached leaves in dry air flow)", "format": "in vivo", "conditions": "pre-treatment: ABA 10 and 100 μM, analogues 10 μM; 6 h dry air flow"}, "[6]": {"tested_on": "etiolated Arabidopsis thaliana seedlings", "conditions": "adventitious root; 10 μM, compared with control not-treated seedlings"}},
  "data": [
    {"smiles": "O=P(O)(NCc1ccccn1)c1ccc(Br)c2ccccc12", "note": "[Analogue E10, Hydrogen N-(pyridin-2-ylmethyl)-P-(4-bromonapht-1-yl)phosphonamidate]", "values": [
      {"measurement": "Shoot", "setting": "[1]", "value": 0},
      {"measurement": "Seed germination", "setting": "[2]", "value": 0},
      {"measurement": "effect on primary root growth", "setting": "[3]", "value": "modest inhibitors of primary root elongation"},
      {"measurement": "PR", "setting": "[3]; primary root, compared with control not-treated seedlings", "value": "+"},
      {"measurement": "effect on LR+ LRP density (per cm primary root)", "setting": "[4]; 13 d old etiolated seedlings", "value": "reduced the numbers of LR+ LRP similarly to ABA"},
      {"measurement": "effect on number of LR+ LRP (lateral root initiation)", "setting": "[4]; 13 d old etiolated seedlings", "value": "modest to weak inhibitors of lateral root formation"},
      {"measurement": "LR", "setting": "[4]; lateral root, compared with control not-treated seedlings", "value": "+"},
      {"measurement": "effect on stomatal aperture", "setting": "tobacco epidermal strips", "value": "intermediate stomatal closure"},
      {"measurement": "Stomata", "setting": "tobacco epidermal strips; compared with control not-treated epidermal strips", "value": "+"},
      {"measurement": "effect on leaf weight loss / transpiration", "setting": "[5]", "value": "reduction of transpiration"},
      {"measurement": "AR", "setting": "[6]", "value": "−"}
    ]}
  ]
}
